Melting point data for 88 compounds are collected here from a melting point compilation (Tetko et al.; mined from patent text by program, amines drawn as free bases though some values may be those of a salt).

Broadly, the melting point is the temperature, or range, at which the solid turns liquid.

For `COc1cc(OC)c(-c2ccc(C(=O)O)s2)cc1/C=C/C(=O)c1ccc(C(=O)O)cc1`, the melting point was greater than 260 °C.

Take `CC1(C)CC2(CC(c3ccc(F)cc3)=C1/C=C/[C@H]1C[C@H](O)CC(=O)O1)OCCO2` (relative stereo): the melting point lay within 142 to 144 °C.

`O=C(Nc1ccc2c(c1)OCC(=S)N2)C(=O)N1CCC(Cc2ccccc2)CC1` registered a melting point of 193 to 196 °C.

`C[C@H](Cn1ncnn1)n1cnc2cc3c(=O)n(C4CC4)cnc3cc2c1=O`: the melting point was 221 to 223 °C.

As for `CCCOc1nsc(NC(=O)NC)c1C#N`, the melting point was found to be 220 °C.

As for `CCCOc1cccc(Oc2ccc3c(c2)C=C(C(=O)Nc2ccc(CN(C)C4CCOCC4)cc2)CCS3(=O)=O)c1`, the melting point was in the range of 143 to 144 °C.

With `COc1ccc2[nH]c(S(=O)Cc3c(N)cc(C)c(OC)c3C)nc2c1` (stereo not drawn), the melting point was 149 to 155 °C.

With `CC(NC(=O)OCc1ccccc1)C(=O)NC1C(C(=O)O)OC(n2cnc3c(NC(=O)c4ccccc4)ncnc32)C1O` (stereo not drawn), the melting point lay within 154 to 156 °C.

In turn, `C#CCOCc1c(C)nc2c(OCc3ccccc3OC)cccn12` yielded a melting point of 107 to 108 °C.

Compound `O=C(Nc1ccc(Cl)c(Cl)c1)NS(=O)(=O)c1ccc(Cl)cc1` registered a melting point of 195 to 196 °C.

`COc1cc2c(c3c1OC(C)(C)C3)C(Nc1ccccc1)=NC(C)(C)C2` showed a melting point of 135 to 136 °C.

The compound `CC(=O)c1cccc(C(=O)N2CCN(C(=O)c3cc(C(F)(F)F)cc(C(F)(F)F)c3)[C@H](Cc3ccc(C)c(C)c3)C2)c1` yielded a melting point of 156 to 157 °C.

Compound `CC/C=C/CONC(=O)c1nc(-c2ccc(Cl)c(OC)c2F)cc(N)c1Cl` came in with a melting point of 145 to 147 °C.

The compound `Nc1cccc(-c2ccc(CCCN3CCN(CCc4ccccc4)CC3)cc2)n1` registered a melting point of 125 to 140 °C.

Take `O=c1[nH]c(-c2ccccc2)cn1CCO`: the melting point was in the range of 203 to 205 °C.

As to `COc1ccccc1-c1ccc(C(=O)N2Cc3ccc(C(=O)NCCc4ccc(O)cc4)n3Cc3ccccc32)cc1C`, the melting point was 138 to 147 °C.

In turn, `O=S1(=O)N=C(Nc2ccccn2)Nc2ccc(Cl)cc21` registered a melting point greater than 310 °C.

For the compound `CC(C)C(/C=C/C(=O)O)=C(c1ccc(F)cc1)c1ccc(F)cc1`, the melting point was in the range of 225 to 230 °C.

On to `CN1C(=O)N(c2cc(Cl)cc(Cl)c2)C(=O)[C@]12CNC[C@H]2c1ccc(C#N)cc1`, for which the melting point lay in the range of 175 to 177 °C.

The compound `CCOCc1nc2c(N)nc3ccc(CCc4ccccc4)cc3c2n1CC(C)(C)O` displayed a melting point of 175 to 176 °C.

`Cn1ncnc1COc1nc2c(cnn2-c2ccccc2)c2ccccc12`: the melting point was in the range of 149 to 151 °C.

For `COc1ccccc1COc1nc2c(oc3ccccc32)c(-c2ccc3c(c2)OCCO3)c1C(=O)O`, the melting point was 179 °C.

`COc1ccc2c(c1)C(NC(=O)C(F)(F)F)CC2` (stereo not drawn): the melting point was in the range of 128 to 136 °C.

For the compound `N#CN=C(Nc1cncc(N)c1)NC1(c2ccccc2)CCC1`, the melting point is 213 to 214 °C.

As to `Cc1ccc2c(=O)n(C3CCC(=O)NC3=O)cnc2c1` (stereo not drawn), the melting point lay within 313 to 315 °C.

`Cc1nc2c3c(ccc2n1C)[C@H](O)C[C@H](c1ccccc1)O3` (relative stereo) gave a melting point of 228 to 229 °C.

On to `Cc1c(S(C)(=O)=O)c2cccc(Cl)c2n1CC1=NCCN1`, for which the melting point was in the range of 206 to 208 °C.

Compound `CC(=O)NCC1=CC(c2ccccc2)Cc2c1ccc(O)c2O` (stereo not drawn) registered a melting point of 238 °C.

For `CCN1CC(=O)N(c2ccc(Cl)cc2Cl)C1=S`, the melting point was 144 to 146 °C.

As to `COCc1ccccc1-c1ccc(C(=O)O)cc1`, the melting point fell in the range of 164 to 166 °C.

Consider `CC1=NN(C)c2nc(C)c(CCCl)c(=O)n2C1`, for which the melting point turned out to be 180 °C.

With `O=C1CNC(SCc2ccccn2)=N1`, the melting point was in the range of 105 to 107 °C.

For the compound `O=C(c1ccccc1Cl)c1ccc(O)c(Cl)c1Cl`, the melting point was 74 to 77 °C.

With `Cc1cccc(-c2cncc(Nc3ccc(Cl)cc3)n2)n1`, the melting point lay in the range of 186 to 188 °C.

`CC1C(=O)N(c2ccccc2O)Sc2ccccc21` (stereo not drawn) had a melting point of 162 to 164 °C.

In turn, `Cc1ccc(N(c2ccc(C)cc2)c2ccc(C=Cc3cc(O)cc(O)c3)cc2)cc1` displayed a melting point of 161 °C.

`O=C(O)C1C=CC=CC1(F)OC(Cc1c(CCNS(=O)(=O)Cc2ccc(Cl)c(Cl)c2)[nH]c2ccc(Cl)cc12)C(c1ccccc1)c1ccccc1` (stereo not drawn) displayed a melting point of 117 to 119 °C.

In turn, `Cn1nc2ccc3nc(O)c(O)nc3c2n1` showed a melting point greater than 300 °C.

`Cc1nc(N2CCCC2)nc(C)c1-c1cccc2c1OC[C@H]2Nc1ccc2c(c1)OC[C@H]2CC(=O)O` showed a melting point of 169 °C.

With `CN(C)Cc1cc(C(=O)c2cccs2)cc(C(C)(C)C)c1O`, the melting point lay in the range of 132 to 134 °C.

For `Cc1c(C(F)(F)F)noc1NS(=O)(=O)c1cccc2ccccc12`, the melting point fell in the range of 154 to 155 °C.

In turn, `CCCOc1ccc(CNc2cc(C(=O)Nc3ccccc3)ccc2OC)cc1` gave a melting point of 154 to 156 °C.

Consider `Cc1cc(-c2nc(-c3cccs3)c[nH]2)ccc1O`, for which the melting point fell in the range of 167 to 172 °C.

In turn, `Nc1nc2c(ncn2OCC(O)CCP(=O)(O)O)c(=O)[nH]1` (stereo not drawn) came in with a melting point greater than 315 °C.

For the compound `CCC(=O)Oc1ccc(-c2nc(-c3ccc(N(C)C)cc3)c(C)[nH]2)cc1OC`, the melting point was 244 to 246 °C.

`COc1nc(C(F)(F)C(F)(F)F)cc(=O)n1-c1cc(C(=O)O)c(Cl)cc1F` registered a melting point of 197 to 199 °C.

In turn, `C[N+]([O-])=C(Cn1ccnc1)c1ccco1` yielded a melting point of 120 to 123 °C.

With `N#CC(=NOS(=O)(=O)c1ccc(O)cc1)c1ccccc1`, the melting point worked out at 148 °C.

Turning to `CCCCCc1c(/C=C/C(=O)Oc2ccc([N+](=O)[O-])cc2)sc2cc(OC)ccc12`, the melting point lay within 111 to 113 °C.

For `COc1ccc(CNc2nnc(N3CCC(O)C3)c3ccc(Cl)cc23)cc1Cl` (stereo not drawn), the melting point lay within 191 to 193 °C.

In the case of `O=C(O)c1ccc(N(Cc2cncs2)c2ccc(OC(F)F)c(OC(F)F)c2)cc1`, the melting point lay within 144 to 146 °C.

Regarding `O=C(Nc1cc(Cl)cc(Cl)c1O)Nc1cccc(C(F)(F)F)c1Cl`, the melting point lay in the range of 161 to 163 °C.

Consider `CCOC(=O)c1ccc(OC(=O)CCCC(=O)Oc2ccc(C(=O)OCC)cc2)cc1`, for which the melting point was 81 to 82 °C.

Compound `OCCOc1ccc(C(=S)c2ccc(-c3ccccc3)cc2)c(O)c1` registered a melting point of 77 to 79 °C.

Compound `CC[C@H](C)[C@H](NC(=O)N(C)Cc1ccccn1)C(=O)N[C@@H](Cc1ccccc1)C[C@H](O)[C@H](Cc1ccccc1)NC(=O)OCc1cncs1` gave a melting point of 64 to 67 °C.

For `CCCCC(=O)c1[nH]c(=O)[nH]c1C`, the melting point lay within 222 to 224 °C.

For the compound `FC(F)(F)c1cc(N2CCN(Cc3n[nH]c4ccccc34)CC2)cc(C(F)(F)F)c1`, the melting point was 155 to 156 °C.

On to `COC1(C)CSC2C(NC(=O)Cc3ccccc3)C(=O)N2C1C(=O)OCC(Cl)(Cl)Cl` (stereo not drawn), for which the melting point was in the range of 132 to 133 °C.

As for `CN(C(=O)Nc1ccc(Oc2ccccc2)cc1)C(Cl)C(Cl)(Cl)Cl` (stereo not drawn), the melting point was 160 to 162 °C.

As for `CN1C(=O)C(C)(C)c2ccc(C(=O)O)cc21`, the melting point was 253 to 255 °C.

`COC(=O)ON1C(=O)c2ccccc2C1=O` returned a melting point of 129 to 135 °C.

Consider `C/C=C/CNC(=O)N1CC(Oc2ccc(C(F)(F)F)cc2)C1`, for which the melting point was 157 to 158 °C.

Compound `CCN(CC)CCOC(=O)C(C)(c1ccc(O)cc1)c1ccc(O)cc1` came in with a melting point of 140 to 141 °C.

In the case of `O=C(CCl)Nc1ccccc1C1C=CCC1` (stereo not drawn), the melting point was in the range of 101 to 102 °C.

In turn, `Cn1c(=O)[nH]c(N2CCc3ccccc3CC2)c(C#N)c1=O` registered a melting point greater than 200 °C.

`CC(C)(C)c1ccc(/C=C/C(=O)Nc2ccc3c(c2)NCC3)cc1` came in with a melting point of 153 to 167 °C.

Regarding `O=C(Nc1cccc(C(F)(F)F)c1)c1cccc2cc(O)ccc12`, the melting point fell in the range of 201 to 202 °C.

Consider `COc1ccc2sc(=NN3C(=O)CSC3=S)sc2c1`, for which the melting point was 254 to 255 °C.

Compound `COC1=NS(=O)N=C1OC` yielded a melting point of 137 to 139 °C.

`O=C(/C=C/c1ccc(C(F)(F)F)cc1Br)Nc1ccc2ncsc2c1` had a melting point of 214 to 215 °C.

The compound `Cc1oc(-c2ccccc2)nc1CCCc1ccc(CC(C(=O)O)c2cccc(-c3ccccc3)c2)cc1` (stereo not drawn) came in with a melting point of 75 to 80 °C.

`Fc1ccc2c(-c3ccc(OC[C@H]4CO4)cc3)noc2c1`: the melting point was 132 to 133 °C.

With `COC(=O)C1C=C2c3cccc4[nH]c(C)c(c34)CC2N(C)C1` (stereo not drawn), the melting point turned out to be 154 °C.

`N#CCCCC(=NO)c1ccc(Cl)c(Cl)c1` came in with a melting point of 122 to 123 °C.

Take `COC(=O)NN=Cc1cnc2ccccc2n1`: the melting point lay in the range of 242 to 244 °C.

For `O=C(CS)N[C@@H](Cc1c[nH]cn1)C(=O)O`, the melting point was 198 to 200 °C.

For `CC(C)(C)COC(=O)C(C#N)=Cc1cc(O)c(O)c([N+](=O)[O-])c1`, the melting point lay in the range of 173 to 179 °C.

The compound `CCN(CC)Cc1cc(Nc2ccnc3cc(Cl)ccc23)c2c(c1O)CCCC2` yielded a melting point of 215 to 217 °C.

Consider `CCOc1ccc(-c2csc(-c3cccc(C(=O)O)c3)n2)cc1`, for which the melting point was in the range of 231 to 232 °C.

In turn, `Cc1cc(-n2ccc(OCc3ccc(F)cc3)cc2=O)sc1C(=O)NCc1ccccc1` displayed a melting point of 195 to 197 °C.

Turning to `CC(C)c1c(C(=O)Nc2ccccc2)c(-c2ccccc2)c(-c2ccc(F)cc2)n1CCC(O)CC(O)CC(=O)N(c1ccccc1)c1ccccc1` (stereo not drawn), the melting point is 228 to 233 °C.

Consider `CN(C)C=CC(=O)c1ccccc1`, for which the melting point was in the range of 88 to 91 °C.

Compound `CC1(C)OC(=C(C#N)C#N)C(C#N)=C1c1ccc(N=[N+]=[N-])cc1` displayed a melting point of 184 °C.

`COc1ccc([C@@H]2Sc3cc(Cc4ccc(F)cc4)ccc3N(CCN(C)C)C(=O)[C@@H]2OC(C)=O)cc1` returned a melting point of 154 to 156 °C.

Take `CC(=O)Nc1ccc([N+](=O)[O-])c2c(Br)ccc(C)c12`: the melting point lay in the range of 216 to 217 °C.

The compound `c1ccc(-c2nc3cc(COc4ccc(CCCn5ccnc5)cc4)ccc3o2)cc1` returned a melting point of 137 to 138 °C.

Take `NCCCCOc1ccc2c(c1)NC(=O)C(CC(=O)O)C2` (stereo not drawn): the melting point lay within 229 to 230 °C.

For `CC12CCC3C4CCC(OCc5ccccc5)CC4CCC3C1C=CC2=O` (stereo not drawn), the melting point lay in the range of 119 to 120 °C.
